For data set [1], the system named is human erythrocytes. The data set can be described thus: Hemolytic activity against human erythrocytes. The format is cell-based. The conditions noted are these: for ED50, Erythrocytes (hemolytic activity): 1 h at 37 °C. On the procedure: A total of 450 g of human blood (B(III) Rh+) was used to obtain erythrocytes by centrifuging three times for 5 min with phosphate-buffered saline (PBS) (pH 7.4) at 4 °C on a centrifuge LABOFUGE 400R (Heraeus, Hanau, Germany). Ice-cold PBS (pH 7.4) was used for resuspension of erythrocyte residue to a final optical density of 1.5 at 700 nm. Then, 20 µL of tested compound solutions or control (cucumarioside A0-1 [15]) were added to 180 µL of erythrocyte suspension in V-bottom 96-well plates and incubated for 1 h at 37 °C. After centrifugation (900 g, 10 min, laboratory centrifuge LMC-3000 (Biosan, Riga, Latvia)), 100 µL of supernatant was transferred into new flat plates. The values of erythrocyte lysis were measured on microplate photometer Multiskan FC (Thermo Fisher Scientific, Waltham, MA, USA) at λ = 570 nm as hemoglobin concentration in supernatant. […] All the experiments were carried out in triple repetitions, p < 0.05.

Data set [2] has as its system MCF-10A non-tumor mammary epithelial cell line. The data set can be described thus: in vitro. Format: cell-based, human.
In data set [3] the test system is MCF-7 human breast cancer cells. The data set can be described thus: cells. Format: cell-based.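 Also: IC50 values, including those behind the selectivity ratio, derive from formazan absorbance at 570 nm, tested in triplicate.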
Data set [4] relates to T-47D human breast cancer cells. The data set can be described thus: cells. Format: cell-based. Conditions: for Selectivity Index (SI), T-47D: ratio of IC50 for healthy (MCF-10A) and T-47D cells.
Data set [5] concerns MDA-MB-231 triple-negative breast cancer cells. The data set can be described thus: cells. The format is cell-based, human. The conditions noted are these: for Selectivity Index (SI), MDA-MB-231: ratio of IC50 for healthy (MCF-10A) and MDA-MB-231 cells.
The mark [6] stands for this setting: MTT assay, MCF-10A, read-out: Cytotoxicity, IC50, MCF-10A.
Where [7] appears, read: MTT assay, MCF-7, read-out: Cytotoxicity, IC50, MCF-7.
The mark [8] stands for this setting: MTT assay, T-47D, read-out: Cytotoxicity, IC50, T-47D.
Where [9] appears, read: MTT assay, MDA-MB-231, read-out: Cytotoxicity, IC50, MDA-MB-231.

Several values for one entry are separate records, joined by “and”; a condition that tells them apart may be missing. Equal entries are not always repeated. Structures can show the parent of a compound that is named as a salt. Where two headings read alike, the source gives them in different places.
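For Cytotoxicity, IC50, T-47D in this document: cell viability read as absorbance of formazan dye at 570 nm, each experiment run in triplicate.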
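For Selectivity Index (SI), T-47D in this document: cell viability read as absorbance of formazan dye at 570 nm, each experiment run in triplicate.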

For `CO[C@@H]1[C@@H](O)[C@H](O[C@@H]2[C@@H](O)[C@H](O[C@@H]3CO[C@@H](O[C@H]4CC[C@]5(C)C6=CCC78C(=O)O[C@@](C)([C@@H](CCC(C)C)OC(C)=O)[C@H]7[C@@H](OC(C)=O)C[C@@]8(C)[C@@H]6CC[C@H]5C4(C)C)[C@H](O[C@@H]4O[C@H](C)[C@@H](O[C@@H]5OC[C@@H](O)[C@H](O[C@@H]6O[C@H](CO)[C@@H](O)[C@H](OS(=O)(=O)O)[C@H]6O)[C@H]5O)[C@H](O)[C@H]4O)[C@H]3O)O[C@H](CO)[C@H]2O)O[C@H](CO)[C@H]1O` (stereo partly drawn) [Cladoloside T1 (4), 3β-O-{3-O-sodium sulfate-β-D-glucopyranosyl-(1→3)-β-D-xylopyranosyl-(1→4)-β-D-quinovopyranosyl-(1→2)-[3-O-methyl-β-D-glucopyranosyl-(1→3)-β-D-glucopyranosyl-(1→4)]-β-D-xylopyranosyl}-16S,22R-diacetoxyholost-9-en], the “ED50, Erythrocytes (hemolytic activity)” value in data set [1] is 0.12 µM and 0.12 ± 0.02 µM. In addition, the IC50 (usually the concentration that gives 50% inhibition) in data set [2] stood at 8.41 ± 0.4 µM; in data set [3], 7.78 ± 0.62 µM; in data set [4], 7.41 ± 0.69 µM; in data set [5] it was 2.94 ± 0.21 µM.
For the compound `C=C(C)CC[C@@H](OC(C)=O)[C@]1(C)OC(=O)C23CC=C4[C@@H](CC[C@H]5C(C)(C)[C@@H](O[C@@H]6OC[C@@H](O[C@@H]7OC[C@@H](O)[C@H](O[C@@H]8O[C@H](CO)[C@@H](O)[C@H](O)[C@H]8O)[C@H]7O)[C@H](O)[C@H]6O[C@@H]6O[C@H](C)[C@@H](O[C@@H]7OC[C@@H](O)[C@H](O[C@@H]8O[C@H](CO)[C@@H](O)[C@H](OC)[C@H]8O)[C@H]7O)[C@H](O)[C@H]6O)CC[C@]45C)[C@]2(C)C[C@H](OC(C)=O)[C@@H]31` (stereo partly drawn) [Cladoloside D (18), Cladoloside D], the “Hemolytic (membranolytic) activity, in words” value (shortened to “Hemolytic … in words”) in data set [1] was “high activity”. The “ED50, Erythrocytes (hemolytic activity)” value was determined as 0.29 µM in data set [1] and 0.29 ± 0.03 µM in data set [1] (listed as D (18)). In addition, the “Toxicity to normal mammary cells MCF-10A, in words” value in data set [2] (MCF-10A) is on record as “non-toxic”. The half-maximal inhibitory concentration (IC50) in data set [2] (setting [6]) is over 20 µM; in data set [3] (setting [7]), 15.3 ± 0.94 µM; in data set [4] (setting [8]) it was 14.9 ± 0.85 µM; in data set [5] (setting [9]), 2.98 ± 0.24 µM. Also, the “Selectivity Index (SI), MCF-7” value in data set [3] (ratio of IC50 for healthy (MCF-10A) and MCF-7 cells) is over 1.31. Moreover, the “Selectivity Index (SI), T-47D” value in data set [4] is given as over 1.34. In addition, in data set [5], the “Selectivity Index (SI), MDA-MB-231” value is on record as over 6.7.
For `C=C(C)CCC[C@]1(C)OC(=O)C23CC=C4[C@@H](CC[C@H]5C(C)(C)[C@@H](O[C@@H]6OC[C@@H](O[C@@H]7O[C@H](CO)[C@@H](O)[C@H](O[C@@H]8O[C@H](CO)[C@@H](O)[C@H](OC)[C@H]8O)[C@H]7O)[C@H](O)[C@H]6O[C@@H]6O[C@H](C)[C@@H](O[C@@H]7O[C@H](CO)[C@@H](O)[C@H](O[C@@H]8O[C@H](CO)[C@@H](O)[C@H](OC)[C@H]8O)[C@H]7O)[C@H](O)[C@H]6O)CC[C@]45C)[C@]2(C)CC(=O)[C@@H]31` (stereo partly drawn) [Cladoloside M1 (35), cladoloside M1], the “ED50, Erythrocytes (hemolytic activity)” value in data set [1] is 0.08 ± 0.01 µM. For the same compound, the “Hemolytic … in words” value in data set [1] (listed as M1 (35)) is “strong hemolytics”; in data set [1] (listed as cladoloside M1 (35)), “most active compound”. Besides, the IC50 in data set [2] (setting [6]) was 9.81 ± 0.86 µM; in data set [3] (setting [7]) it was over 20 µM; in data set [4] (setting [8]) it was 17.1 ± 1.52 µM; in data set [5] (setting [9]) it was 5.05 ± 0.38 µM. Moreover, the “Selectivity Index (SI), T-47D” value in data set [4] came out at 0.57. The “Selectivity Index (SI), MDA-MB-231” value in data set [5] is listed as 1.94.
Take `C=C(C)CC[C@@H](OC(C)=O)[C@]1(C)OC(=O)C23CC=C4[C@@H](CC[C@H]5C(C)(C)[C@@H](O[C@@H]6OC[C@@H](O[C@@H]7OC[C@@H](O)[C@H](O[C@@H]8O[C@H](CO)[C@@H](O)[C@H](OC)[C@H]8O)[C@H]7O)[C@H](O)[C@H]6O[C@@H]6O[C@H](C)[C@@H](O[C@@H]7OC[C@@H](O)[C@H](O[C@@H]8O[C@H](CO)[C@@H](O)[C@H](OC)[C@H]8O)[C@H]7O)[C@H](O)[C@H]6O)CC[C@]45C)[C@]2(C)C[C@H](OC(C)=O)[C@@H]31` (stereo partly drawn) [Cladoloside G (25), cladoloside G]: the “Hemolytic … in words” value in data set [1] was “high activity”. The “ED50, Erythrocytes (hemolytic activity)” value in data set [1] (listed as G (25)) is reported as 0.35 ± 0.04 µM; in data set [1] (listed as cladoloside G (25)) it was 0.35 µM. Also, the half-maximal inhibitory concentration (IC50) is over 20 µM in data set [2] (setting [6]), over 20 µM in data set [3] (setting [7]), over 20 µM in data set [4] (setting [8]) and 3.95 ± 0.38 µM in data set [5] (setting [9]). The “Selectivity Index (SI), MDA-MB-231” value in data set [5] is over 5.06.
Turning to cladoloside C [Cladoloside C (13)], in data set [1], the “Hemolytic … in words” value is on record as “high activity”. Moreover, the “ED50, Erythrocytes (hemolytic activity)” value in data set [1] (listed as C (13)) came out at 0.44 ± 0.05 µM; in data set [1] (listed as cladoloside C (13)) it was 0.44 µM. The IC50 in data set [2] (setting [6]) is over 20 µM; in data set [3] (setting [7]), over 20 µM; in data set [4] (setting [8]), 12.4 ± 0.66 µM; in data set [5] (setting [9]), 13 ± 0.8 µM. Moreover, the “Selectivity Index (SI), T-47D” value in data set [4] was over 1.61. For the same compound, in data set [5], the “Selectivity Index (SI), MDA-MB-231” value is recorded as over 1.54.
Consider `CO[C@@H]1[C@@H](O)[C@H](O[C@@H]2[C@@H](O)[C@H](O[C@H]3[C@H](O)[C@@H](O)[C@H](O[C@H]4[C@H](O[C@H]5CC[C@]6(C)C7=CCC89C(=O)O[C@@](C)(CCC=C(C)C)[C@H]8C(=O)C[C@@]9(C)[C@@H]7CC[C@H]6C5(C)C)OC[C@@H](O)[C@@H]4O)O[C@@H]3C)OC[C@H]2O)O[C@H](CO)[C@H]1O` (stereo partly drawn) [A4 (8), cladoloside A4], for which the “Hemolytic … in words” value in data set [1] is “weakest effect from the series”. In addition, the “ED50, Erythrocytes (hemolytic activity)” value in data set [1] worked out at 13.60 ± 0.70 µM. Moreover, the IC50 in data set [2] (setting [6]), in data set [3] (setting [7]), in data set [4] (setting [8]) and in data set [5] (setting [9]) was over 20 µM in each case.
With `C=C(C)CCC[C@]1(C)OC(=O)C23CC=C4[C@@H](CC[C@H]5C(C)(C)[C@@H](O[C@@H]6OC[C@@H](O)[C@H](O)[C@H]6O[C@@H]6O[C@H](C)[C@@H](O[C@@H]7OC[C@@H](O)[C@H](O[C@@H]8O[C@H](CO)[C@@H](O)[C@H](OC)[C@H]8O)[C@H]7O)[C@H](O)[C@H]6O)CC[C@]45C)[C@]2(C)C[C@H](OC(C)=O)[C@@H]31` (stereo partly drawn) [A3 (7), cladoloside A3], in data set [1], the “Hemolytic … in words” value was “low hemolytic activity”. Besides, the “ED50, Erythrocytes (hemolytic activity)” value in data set [1] stood at 7.58 ± 0.69 µM; in data set [1] (listed as cladoloside A3 (7)) it was 7.58 µM. For the same compound, the IC50 in data set [2] (setting [6]), in data set [3] (setting [7]), in data set [4] (setting [8]) and in data set [5] (setting [9]) was over 20 µM in each case.
Turning to `CO[C@@H]1[C@@H](O)[C@H](O[C@@H]2[C@@H](O)[C@H](O[C@@H]3CO[C@@H](O[C@H]4CC[C@]5(C)C6=CCC78C(=O)O[C@@](C)([C@@H](CCC(C)C)OC(C)=O)[C@H]7[C@@H](OC(C)=O)C[C@@]8(C)[C@@H]6CC[C@H]5C4(C)C)[C@H](O[C@@H]4O[C@H](C)[C@@H](O[C@@H]5OC[C@@H](O)[C@H](O[C@@H]6O[C@H](CO)[C@@H](O)[C@H](OC)[C@H]6O)[C@H]5O)[C@H](O)[C@H]4O)[C@H]3O)O[C@H](C)[C@H]2O)O[C@H](CO)[C@H]1O` (stereo partly drawn) [Cladoloside H1 (26), Cladoloside H1], the “ED50, Erythrocytes (hemolytic activity)” value in data set [1] is 0.21 ± 0.02 µM. In addition, in data set [2] (MCF-10A), the “Toxicity to normal mammary cells MCF-10A, in words” value is on record as “non-toxic”. Also, the IC50 is over 20 µM in data set [2] (setting [6]), 15.9 ± 1.14 µM in data set [3] (setting [7]), 13.2 ± 0.72 µM in data set [4] (setting [8]) and 2.47 ± 0.32 µM in data set [5] (setting [9]).
For `C=C(C)CC[C@@H](OC(C)=O)[C@]1(C)OC(=O)C23CC=C4[C@@H](CC[C@H]5C(C)(C)[C@@H](O[C@@H]6OC[C@@H](O)[C@H](O)[C@H]6O[C@@H]6O[C@H](C)[C@@H](O[C@@H]7O[C@H](CO)[C@@H](O)[C@H](O[C@@H]8O[C@H](CO)[C@@H](O)[C@H](OC)[C@H]8O)[C@H]7O)[C@H](O)[C@H]6O)CC[C@]45C)[C@]2(C)C[C@H](OC(C)=O)[C@@H]31` (stereo partly drawn) [A6 (10), cladoloside A6], the “ED50, Erythrocytes (hemolytic activity)” value in data set [1] was 3.43 ± 0.22 µM. Also, the IC50 in data set [2] (setting [6]), in data set [3] (setting [7]), in data set [4] (setting [8]) and in data set [5] (setting [9]) was over 20 µM in each case.
As for `C=C(C)CC[C@@H](OC(C)=O)[C@]1(C)OC(=O)C23CC=C4[C@@H](CC[C@H]5C(C)(C)[C@@H](O[C@@H]6OC[C@@H](O[C@@H]7O[C@H](CO)[C@@H](O)[C@H](O)[C@H]7O)[C@H](O)[C@H]6O[C@@H]6O[C@H](C)[C@@H](O[C@@H]7OC[C@@H](O)[C@H](O[C@@H]8O[C@H](COS(=O)(=O)[O-])[C@@H](O)[C@H](OC)[C@H]8O)[C@H]7O)[C@H](O)[C@H]6O)CC[C@]45C)[C@]2(C)C[C@H](OC(C)=O)[C@@H]31.[Na+]` (stereo partly drawn) [I2 (29), cladoloside I2], the “ED50, Erythrocytes (hemolytic activity)” value in data set [1] turned out to be 4.24 ± 0.31 µM; in data set [1] (listed as cladoloside I2 (29)), 4.24 µM. The IC50 in data set [2], in data set [3], in data set [4] and in data set [5] was over 20 µM in each case.
